This passage reports IC50 results from patent US5087631A, “Oxathi(SIV)azol-5-one compounds” (Glaxo Inc., priority 1990, dated 1992).

Molecules are shown by their SMILES.

Broadly, the IC50 is the concentration that inhibits the measured activity by half.

The test system of this experiment is thoracic aortas. The experiment is described as follows: Aorta Vasodilation Assay (relaxation of phenylephrine-contracted, endothelium-removed rat thoracic aorta rings). On the set-up: species or system male Sprague-Dawley rats. The note with it: 20% O2, without methylene blue, endothelium-removed rings contracted with phenylephrine (1×10^-7 M), SOD 100 U/mL, cumulative addition, read-out: IC50 (relaxation induced by test compound, vasodilation assay). As to the method:
The thoracic aortas removed from euthanized male Sprague-Dawley rats (200-300 g) are cleaned of adherent connective tissue and cut into rings 3 to 5 mm in length. Endothelium is removed by rolling the rings on moist filter paper. […] Tissues are mounted to isometric force displacement transducers and responses are recorded on a polygraph.
All rings are gradually stretched (over a 120 min. period) to a basal resting tension of 2 g, which is maintained throughout the assay. During the basal tension adjustment period, the rings are exposed to KCl (40 mM) two to three times to verify tissue contractility. During this period, the effectiveness of endothelium removal is confirmed by the absence of the characteristic relaxation seen with acetylcholine (1×10^-6 M) in endothelium-intact (but not endothelium-removed) rings contracted with phenylephrine (1×10^-7 M).
Phenylephrine (1×10^-7 M) is then added and the rings are allowed to obtain a stable contractile response after which time, SOD (100 U/mL) is added to the tissues. The test compound is then added in a cumulative fashion. After the stabilization of the response to the last concentration of the test compound, sodium nitroprusside (1×10^-4 M) is added to induce complete relaxation.
`COc1ccc(-c2[s+]noc2[O-])cc1` [4-methoxyphenyl, 4-(4-methoxyphenyl)-5H-1,3,2-oxathi(SIV)azol-5-one]: the concentration for half-maximal inhibition (IC50) worked out at 1.3 µM. With `O=[N+]([O-])c1ccc(-c2[s+]noc2[O-])cc1` [4-nitrophenyl, 4-(4-nitrophenyl)-5H-1,3,2-oxathi(SIV)azol-5-one], the IC50 stood at 16 µM. For `Cc1[s+]noc1[O-]` [methyl, 4-Methyl-5H-1,3,2-oxathi(SIV)azol-5-one] the value was 20 µM; for `[O-]c1on[s+]c1-c1ccccc1` [phenyl, 4-phenyl-5H-1,3,2-oxathi(SIV)azol-5-one], 2.3 µM.
